Results taken from patent US20250270549A1, “MSI2 AS A THERAPEUTIC TARGET FOR THE TREATMENT OF MYOTONIC DYSTROPHY” (UNIVERSITAT DE VALÈNCIA, priority 2021, published 2025).
l = locked nucleic acid (LNA); d = 2'-deoxy (DNA)

Tests used:
MD1 TDMs = assay: Desmin immunostaining: myogenic fusion index and myotube diameter; type: cell-based, human; conditions: MD1 myotubes; 30 nM
Method: (§1) TDMs were cultured as previously described^1. After 4 days in differentiation medium (MDM), cells were transfected with a combination of two siRNAs (SEQ ID NO: 40 and 43) targeting MSI2 transcripts (final concentration 100 nM) using Lipofectamine RNAiMAX transfection reagent (Invitrogen, Madrid, Spain)) following the manufacturer's recommendations. After 48 h, the medium containing the siRNAs was replaced by fresh MDM. 24 h later, cells were collected. As a control, the same protocol was performed using 100 nM of a siRNA with a scrambled sequence (Cat #4390843 for negative control). Gapmers against MSI2 and agomiR-107 were transfected following the same protocol using two different concentrations, 30 and 150 nM in the case of Gapmers and 100 and 300 nM in the case of agomiR-107. To treat cells with the small molecule Ro-08-2750 (Tocris Cat. No. 2272, Bristol, UK)), cells were cultured as before. Briefly, after 96 h in MDM, the medium was supplemented with Ro-08-2750 at a final concentration of 10 μM (0.8% DMSO) or with the vehicle, DMSO 0.8%, for 48 h. Then cells were collected for further analyses.
Desmin immunostaining and fusion index and diameter determination were performed as previously described^3. For MSI2 immunodetection, 3.5×10^4 fibroblasts/well were seeded in 24 well plates. After 7 days of differentiation into myotubes, cells were fixed with 4% paraformaldehyde (PFA) for 15 min. After 3 washes with PBS-T (0.1%×-TritonX-100 in PBS 1×) cells were blocked (PBS-T, 1% BSA, 5% normal goat serum) for 1 h and incubated with rabbit anti-MSI2 antibody (1:100, Abcam, EP1305Y, Cambridge, UK) in blocking buffer for 48 h at 4° C. After three washes with PBS-T, cells were incubated for 1 h with goat anti-rabbit-FITC IgG (1:200, Sigma-Aldrich, St. Louis, Missouri) in blocking buffer. Finally, cells were washed thrice with PBS 1× and were counterstained and mounted with VECTASHIELD® mounting medium containing DAPI (Vector Laboratories, London, UK) to detect the nuclei. Images were taken in a confocal microscope LSM800 (Zeiss) at 400× magnification.

AKT = AKT pathway activation: phospho (Ser473)-AKT-to-total-AKT ratio; type: cell-based, human; conditions: DM1 TDMs; 150 nM
Method: (§2) FIG. 10. Inhibition of MSI2 expression in DM1 TDMs restores impaired autophagic markers. (A) qRT-PCR quantification of the relative expression of the indicated genes involved in different autophagy pathway steps in DM1 and control (green dashed lines) myotubes. Statistical analyses were performed comparing DM1 versus controls. (B) Analyses of the expression of genes quantified in (A) in DM1 myotubes treated with ASOs targeting MSI2 transcripts. All comparisons for the statistical analyses were performed using their corresponding scrambled control (dashed lines). […] Quantification and representative western blots of (C) ATG4A, (D) ATG7, (E) AKT-P/AKT total protein levels, and (F) LC3-II/LC3-I ratio in DM1 TDMs treated with MSI2 targeting or scrambled ASOs at the indicated concentrations. Green dashed lines indicate protein expression levels in control myotubes. β-actin was used as an endogenous control to normalize protein levels (n=3). The bar graphs show mean #SEM. * p<0.05, ** p<0.01, *** p<0.001, and **** p<0.0001 according to Student's t test.
Protein extraction, quantification and immunodetection were performed as previously described^1,3. Specifically, MSI2 detections were performed by incubating membranes overnight with a rabbit anti-MSI2 antibody (1:1000, Abcam, EP1305Y, Cambridge, UK). […] Quantification was performed using ImageJ software (NIH).

MSI2 transcripts = assay: MSI2 relative expression (transcripts) by RT-qPCR in muscle cells; type: cell-based, H. sapiens
Method: as §1
(§3) All the procedures were performed as previously described^1.

LC3 = LC3 immunostaining and LC3 puncta quantification; type: cell-based, human; conditions: DM1 TDMs; compared to scrambled ASO at the same concentration
Method: For LC3B immunodetection, cells were differentiated in MDM for 7 days (3×10^5 cells/well in 24-well plates). After 48 h of gapmer treatment, cells were fixed with 4% PFA in PBS for 15 min at room temperature. After fixation, cells were permeabilized with methanol 100% for 15 min at −20° C. and blocked with blocking buffer (PBS 1×, 0.5% BSA, 1% goat serum) for 1 h at room temperature. Cells were incubated overnight (O/N) with rabbit anti-LC3B (1:200, ab51520; Abcam, Cambridge, UK) diluted in blocking buffer. Then, samples were incubated with goat anti-rabbit IgG (H+L) Alexa Fluor Plus 594 (1:200; Invitrogen, Carlsbad, CA, USA) for 2 h. Between antibodies, cells were washed three times with PBS 1×. Finally, cells were washed three times with PBS and mounted in Vectashield (Vector Laboratories, London, UK) with […] DAPI.
Image analyses of LC3-stained myotubes were performed using the Ifdotmeter software following the authors' recommendations (see Rodríguez-Arribas, M., et al. (2016). IFDOTMETER: A New Software Application for Automated Immunofluorescence Analysis. J. Lab. Autom. 21, 246-259). Briefly, the quantification of the number of LC3 dots or LC3 puncta was performed with 15-20 images per condition. Total LC3 dots per image were normalized relative to the total area corresponding to all myotubes observed in each image. Myotube area was measured by using ImageJ software. Data were expressed as the number of LC3 dots/mm2.

[1] = tested on: ATG3, ATG4A, ATG5, ATG7, and mTOR; assay: qRT-PCR of autophagy pathway genes in DM1 TDMs; type: cell-based, human; conditions: highest concentration (150 nM)
Method: as §2, §3

TGFBR1 = TGFBR1 expression by RT-qPCR in MD1 muscle cells; type: cell-based, H. sapiens; conditions: DM1 TDMs; 150 nM
Method: as §1, §3

miR-7 = miR-7 quantification by RT-qPCR in MD1 cells; type: cell-based, human; conditions: MD1 cells, * significant
Method: as §1, §3

Method for Human CNT myotubes: (A) Cell growth inhibition assay by MTS method. Human CNT myotubes were transfected with increasing concentrations of ASO1, 2 and 3 (n=4). […] Vertical dashed lines indicate used concentrations in the following experiments: 30 and 150 nM.
Non-DM control (Ctrl) cells (CNT) were aliquoted in 96-well plates with 1.0×10^5 cells per well. After 24 h, cells were transfected as described with different ASOs (concentrations ranging from 1 nM to 1 μM) or treated with Ro-08-2750 (Tocris Bioscience, Bristol, UK) at concentrations ranging from 0.0195 up to 80 μM (in 1:2 serial dilutions). Cell viability was measured as previously described^3.

ASO1: gapmer antisense oligonucleotide against MSI2 transcript, SEQ ID NO: 76 (38), 5′ +T+G+A*C*T*T*C*T*T*T*C*G*G+C+T+G 3′, LNA ends, phosphorothioate linkages (antisense TGACTTCTTTCGGCTG; sugars from the 5' end l3 d10 l3, backbone and methylation of C not given here; further chemistry not fully specified)
fusion capacity (fusion index and diameter) (MD1 TDMs): significant rescue | AKT-P/AKT ratio (AKT): robust increase | MSI2 relative expression upon transfection (MSI2 transcripts; DM1 TDMs, 30 and 150 nM): significant reduction | reduction of MSI2 transcript (MSI2 transcripts; MD1-derived myoblasts, 150 nM): 27% | LC3 dots per unit of area (LC3): significant decrease | TC10 (Human CNT myotubes): 31.2 nM | ATG5 expression [1]: significantly reduced | TGFBR1 expression (TGFBR1): behaved the opposite | FC miR-7 expression respect to MD1, Low concentration (miR-7; ASO 30 nM, Ro 08-2750 10 μM, siRNA 100 nM): 1.49 fold | FC miR-7 expression respect to MD1, High concentration (miR-7; ASO 150 nM): 1.72* fold
